Test results: ChEMBL document CHEMBL1201862, “PubChem BioAssay data set” (2004)
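48-hour exposure; five concentrations; linearly interpolated endpoints. Abbreviation: GI50, concentration required for 50% inhibition of growth.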 Active and inactive are the calls of the source. Cut-off read from the data, not from the text of the source: active = GI50 up to about 1.1 µM and inactive = higher.

Legend:
Test in all cases: NCI tumour cell line growth inhibition, 48 h
SK-MEL-28 = tested on: SK-MEL-28
HCT-15 = tested on: HCT-15
COLO 205 = tested on: COLO 205
K562 = tested on: K562
CCRF-CEM = tested on: CCRF-CEM
U-251 = tested on: U-251
EKVX = tested on: EKVX
OVCAR-4 = tested on: OVCAR-4
SW-620 = tested on: SW-620
OVCAR-8 = tested on: OVCAR-8
UACC-62 = tested on: UACC-62
UACC-257 = tested on: UACC-257
SK-OV-3 = tested on: SK-OV-3
MCF7 = tested on: MCF7
HCT-116 = tested on: HCT-116
A498 = tested on: A498
SF-539 = tested on: SF-539
KM-20L2 = tested on: KM-20L2
IGROV-1 = tested on: IGROV-1
SF-268 = tested on: SF-268

Structure (SMILES) | GI50 (SK-MEL-28) | GI50 (HCT-15) | GI50 (COLO 205) | GI50 (K562) | GI50 (CCRF-CEM) | GI50 (U-251) | GI50 (EKVX) | GI50 (OVCAR-4) | GI50 (SW-620) | GI50 (OVCAR-8) | GI50 (UACC-62) | GI50 (UACC-257) | GI50 (SK-OV-3) | GI50 (MCF7) | GI50 (HCT-116) | GI50 (A498) | GI50 (SF-539) | GI50 (KM-20L2) | GI50 (IGROV-1) | GI50 (SF-268)
COC(=O)C#Cc1cccc(OC)c1OC | 38.9 µM (inactive) | 32.4 µM | 27 µM (inactive) | 21.1 µM (inactive) | 26.6 µM (inactive) | 31.8 µM (inactive) | 19.5 µM (inactive) | 20.4 µM (inactive) | 47 µM (inactive) | 40.3 µM (inactive) | 48.3 µM (inactive) | > 100 µM (inactive) | 48 µM (inactive) | 19.7 µM (inactive) | 33.6 µM (inactive) | 45 µM (inactive) | 21.6 µM (inactive) | – | – | –
N=C(N)Nc1ncccc1[N+](=O)[O-] | > 100 µM (inactive) | 82.2 µM | 21.8 µM (inactive) | > 100 µM (inactive) | > 100 µM (inactive) | > 31.6 µM (inactive) | – | > 100 µM (inactive) | > 100 µM (inactive) | > 88.3 µM (inactive) | > 100 µM (inactive) | 23.6 µM (inactive) | > 100 µM (inactive) | 25.7 µM (inactive) | 38.4 µM (inactive) | > 100 µM (inactive) | 53.6 µM (inactive) | 25.4 µM (inactive) | > 93.8 µM (inactive) | 74.6 µM (inactive)
COc1nc(Cl)c(Cl)c(Cl)n1.COc1nc(Cl)nc(Cl)c1Cl | 14 µM (inactive) | 2.19 µM | 14.2 µM (inactive) | 0.859 µM (active) | 2.7 µM (inactive) | 3.78 µM (inactive) | 0.381 µM (active) | 6.07 µM (inactive) | 3.62 µM (inactive) | 2.89 µM (inactive) | 8.93 µM (inactive) | 3.83 µM (inactive) | 10.3 µM (inactive) | 2.62 µM (inactive) | 8.2 µM (inactive) | 8.61 µM (inactive) | 9.35 µM (inactive) | – | 4.53 µM (inactive) | 6.18 µM (inactive)
CCCCOc1ccc(OCCCCCCCCCC[N+](C)(C)C)cc1 | 5.58 µM (inactive) | 14.9 µM | 1.24 µM (inactive) | 2.74 µM (inactive) | 1.28 µM (inactive) | 1.91 µM (inactive) | 15.5 µM (inactive) | 2.86 µM (inactive) | 3.66 µM (inactive) | 3.66 µM (inactive) | 4.06 µM (inactive) | 5.08 µM (inactive) | 2.89 µM (inactive) | 3.44 µM (inactive) | 2.34 µM (inactive) | 9.93 µM (inactive) | 3.24 µM (inactive) | 0.682 µM (active) | 1.37 µM (inactive) | 3.13 µM (inactive)
N/C(=C\c1ccc(/C=C(\NC(=O)c2ccccc2)c2nc3c([nH]2)C(=O)c2ccccc2C3=O)cc1)c1nc2c([nH]1)C(=O)c1ccccc1C2=O | 16.8 µM (inactive) | 13.9 µM | 14.8 µM (inactive) | 14.9 µM (inactive) | 12.3 µM (inactive) | 14.3 µM (inactive) | 23.3 µM (inactive) | 11.2 µM (inactive) | 20.4 µM (inactive) | 15.8 µM (inactive) | 11.5 µM (inactive) | 17.8 µM (inactive) | 24.1 µM (inactive) | – | 14.5 µM (inactive) | 13.6 µM (inactive) | 16.6 µM (inactive) | 16.5 µM (inactive) | 14.8 µM (inactive) | 8.47 µM (inactive)
O=c1c(Cc2c(O)oc3cc(O)ccc3c2=O)c(O)oc2cc(O)ccc12 | > 100 µM (inactive) | > 100 µM | > 100 µM (inactive) | 64.9 µM (inactive) | 56 µM (inactive) | > 100 µM (inactive) | > 100 µM (inactive) | 56.8 µM (inactive) | > 100 µM (inactive) | > 100 µM (inactive) | > 100 µM (inactive) | > 100 µM (inactive) | > 100 µM (inactive) | > 100 µM (inactive) | > 100 µM (inactive) | > 100 µM (inactive) | > 100 µM (inactive) | – | > 100 µM (inactive) | > 100 µM (inactive)
OCCNCN(CNCCO)c1nc(N(CNCCO)CNCCO)nc(N(CNCCO)CNCCO)n1 | 0.04 µM (active) | 0.0556 µM | 0.0411 µM (active) | 0.04 µM (active) | 0.04 µM (active) | 0.0745 µM (active) | 0.0679 µM (active) | 0.0715 µM (active) | 0.04 µM (active) | 0.0755 µM (active) | – | 0.0643 µM (active) | 0.0861 µM (active) | – | – | 0.0764 µM (active) | 0.075 µM (active) | 0.103 µM (active) | 0.0757 µM (active) | 0.0578 µM (active)
